{
  "source": "patent US4260745A",
  "about": "“3-Halo cephalosporins” (Eli Lilly and Company, priority 1979, dated 1981)",
  "key": {"[1]": {"system": "Penicillin Resistant Staphylococcus", "assay": "Gradient Plate technique, MIC", "assay_type": "cell-based", "conditions": "read-out: Minimum Inhibitory Concentration", "source_text": "The following Table II lists the minimum inhibitory concentration (MIC) for 7-[2-(2-thienyl)acetamido]-3-chloro-3-cephem-4-carboxylic acid against penicillin resistant Staphylococcus both in the presence of and absence of serum. The MIC values were obtained by the Gradient Plate technique carried out essentially as described by Bryson and Szybalski, Science, 116, 45 (1952). […]"}, "[2]": {"system": "Methicillin resistant Staphylococcus", "assay": "Gradient Plate technique, MIC", "assay_type": "cell-based", "conditions": "Clinical Isolate X400 (methicillin resistant)"}, "[3]": {"system": "Escherichia coli", "assay": "Gradient Plate technique, MIC", "assay_type": "cell-based", "conditions": "read-out: Minimum Inhibitory Concentration", "source_text": "(§1) The following Table II lists the minimum inhibitory concentration (MIC) for 7-[2-(2-thienyl)acetamido]-3-chloro-3-cephem-4-carboxylic acid against penicillin resistant Staphylococcus both in the presence of and absence of serum. The MIC values were obtained by the Gradient Plate technique carried out essentially as described by Bryson and Szybalski, Science, 116, 45 (1952).\n(§2) In Table III, below, the MIC values for the test compound of Tables I and II against representative gram-negative organisms is presented. The data were obtained by the Gradient Plate technique.\n(§3) The minimum inhibitory concentrations for 7-[2-(2-thienyl)acetamido]-3-bromo-3-cephem-4-carboxylic acid against representative gram-negative bacteria is presented in Table VI. The data were obtained by the Gradient Plate Method.\n(§4) Tables VII and VIII list the minimum inhibitory concentrations of the test compound effective against representative penicillin resistant Staphylococcus strains, while […] the MIC values obtained against representative gram-negative microorganisms. The data were obtained by the Gradient Plate method."}, "[4]": {"system": "Shigella sp.", "assay": "Gradient Plate technique, MIC", "assay_type": "cell-based", "conditions": "read-out: Minimum Inhibitory Concentration", "source_text": "as §1, §2, §3, §4"}, "[5]": {"system": "Salmonella heidelberg", "assay": "Gradient Plate technique, MIC", "assay_type": "cell-based", "conditions": "Salmonella enterica, read-out: Minimum Inhibitory Concentration", "source_text": "as §1, §2, §3, §4"}, "[6]": {"system": "Pseudomonas aeruginosa", "assay": "Gradient Plate technique, MIC", "assay_type": "cell-based", "conditions": "read-out: Minimum Inhibitory Concentration", "source_text": "as §1, §2, §3, §4"}, "[7]": {"system": "Aerobacter aerogenes", "assay": "Gradient Plate technique, MIC", "assay_type": "cell-based", "conditions": "Klebsiella aerogenes, read-out: Minimum Inhibitory Concentration", "source_text": "as §1, §2, §3, §4"}, "[8]": {"system": "Klebsiella pneumoniae", "assay": "Gradient Plate technique, MIC", "assay_type": "cell-based", "conditions": "read-out: Minimum Inhibitory Concentration", "source_text": "as §1, §2, §3, §4"}, "[9]": {"system": "Serratia marcescens", "assay": "Gradient Plate technique, MIC", "assay_type": "cell-based", "conditions": "read-out: Minimum Inhibitory Concentration", "source_text": "as §1, §2, §3, §4"}, "[10]": {"system": "Escherichia coli EC14", "assay": "standard agar dilution method, MIC", "assay_type": "cell-based", "conditions": "read-out: Minimum Inhibitory Concentration", "source_text": "(§5) In Table IX which follows, the MIC values against a spectrum of microorganisms obtained with the test compound are presented. The test method was the standard agar dilution method."}, "[11]": {"system": "Enterobacter aerogenes EB17", "assay": "standard agar dilution method, MIC", "assay_type": "cell-based", "conditions": "Klebsiella aerogenes, read-out: Minimum Inhibitory Concentration", "source_text": "as §5"}, "[12]": {"system": "Klebsiella pneumoniae KL14", "assay": "standard agar dilution method, MIC", "assay_type": "cell-based", "conditions": "read-out: Minimum Inhibitory Concentration", "source_text": "as §5"}, "[13]": {"system": "Salmonella typhosa SA12", "assay": "standard agar dilution method, MIC", "assay_type": "cell-based", "conditions": "Salmonella enterica, read-out: Minimum Inhibitory Concentration", "source_text": "as §5"}, "[14]": {"system": "Citrobacter freundii", "assay": "standard agar dilution method, MIC", "assay_type": "cell-based", "conditions": "read-out: Minimum Inhibitory Concentration", "source_text": "as §5"}, "[15]": {"system": "Staphylococcus aureus 3074", "assay": "standard agar dilution method, MIC", "assay_type": "cell-based", "conditions": "read-out: Minimum Inhibitory Concentration", "source_text": "as §5"}, "[16]": {"system": "Staphylococcus aureus 3055", "assay": "standard agar dilution method, MIC", "assay_type": "cell-based", "conditions": "read-out: Minimum Inhibitory Concentration", "source_text": "as §5"}, "[17]": {"system": "Ceratocystis ulmi", "assay": "standard agar dilution method, MIC", "assay_type": "cell-based", "conditions": "read-out: Minimum Inhibitory Concentration", "source_text": "as §5"}, "[18]": {"system": "Pseudomonas aeruginosa X239", "assay": "standard agar dilution method, MIC", "assay_type": "cell-based", "conditions": "read-out: Minimum Inhibitory Concentration", "source_text": "as §5"}, "[19]": {"system": "Erwinia amylovora", "assay": "standard agar dilution method, MIC", "assay_type": "cell-based", "conditions": "read-out: Minimum Inhibitory Concentration", "source_text": "as §5"}, "[20]": {"system": "Trichophyton mentagrophytes 27", "assay": "standard agar dilution method, MIC", "assay_type": "cell-based", "conditions": "read-out: Minimum Inhibitory Concentration", "source_text": "as §5"}, "[21]": {"system": "Streptococcus faecalis X66", "assay": "standard agar dilution method, MIC", "assay_type": "cell-based", "conditions": "Enterococcus faecalis, read-out: Minimum Inhibitory Concentration", "source_text": "as §5"}, "[22]": {"system": "Candida tropicalis A17", "assay": "standard agar dilution method, MIC", "assay_type": "cell-based", "conditions": "read-out: Minimum Inhibitory Concentration", "source_text": "as §5"}, "[23]": {"system": "Serratia marcescens SE3", "assay": "standard agar dilution method, MIC", "assay_type": "cell-based", "conditions": "read-out: Minimum Inhibitory Concentration", "source_text": "as §5"}, "[24]": {"system": "Bordetella bronchiseptica 16", "assay": "standard agar dilution method, MIC", "assay_type": "cell-based", "conditions": "read-out: Minimum Inhibitory Concentration", "source_text": "as §5"}, "[25]": {"system": "Aspergillus flavus E", "assay": "standard agar dilution method, MIC", "assay_type": "cell-based", "conditions": "read-out: Minimum Inhibitory Concentration", "source_text": "as §5"}, "[26]": {"system": "Pseudomonas solanacearcum X185", "assay": "standard agar dilution method, MIC", "assay_type": "cell-based", "conditions": "read-out: Minimum Inhibitory Concentration", "source_text": "as §5"}, "[27]": {"system": "Proteus morganii PR15", "assay": "standard agar dilution method, MIC", "assay_type": "cell-based", "conditions": "Morganella morganii, read-out: Minimum Inhibitory Concentration", "source_text": "as §5"}, "[28]": {"system": "Salmonella typhimurium", "assay": "standard agar dilution method, MIC", "assay_type": "cell-based", "conditions": "Salmonella enterica, read-out: Minimum Inhibitory Concentration", "source_text": "as §5"}, "[29]": {"assay": "Electrometric titration", "assay_type": "physicochemical", "conditions": "66% aqueous dmf, read-out: pKa"}},
  "note": "Counter-ions that a name gives are not always drawn. Like-named read-outs stand apart in the source and are kept apart here.",
  "data": [
    {"smiles": "O=CO[C@@H](C(=O)NC1C(=O)N2C(C(=O)O)=C(Cl)CSC12)c1ccccc1", "note": "(stereo partly drawn) [7-[O-(Formyl)-D-mandelamido]-3-chloro-3-cephem-4-carboxylic acid]", "values": [
      {"measurement": "MIC", "setting": "[1]; Clinical Isolate V 32, No Serum", "value": 8, "unit": "µg/mL"},
      {"measurement": "MIC", "setting": "[1]; Clinical Isolate V 32, Serum", "value": "> 20", "unit": "µg/mL"},
      {"measurement": "MIC", "setting": "[1]; Clinical Isolate V 41, No Serum", "value": 5.8, "unit": "µg/mL"},
      {"measurement": "MIC", "setting": "[1]; Clinical Isolate V 41, Serum", "value": "> 20", "unit": "µg/mL"},
      {"measurement": "MIC", "setting": "[1]; Clinical Isolate V 84, No Serum", "value": 0.4, "unit": "µg/mL"},
      {"measurement": "MIC", "setting": "[1]; Clinical Isolate V 84, Serum", "value": 1, "unit": "µg/mL"},
      {"measurement": "MIC", "setting": "[1]; Clinical Isolate X 1.1, No Serum", "value": "< 0.1", "unit": "µg/mL"},
      {"measurement": "MIC", "setting": "[1]; Clinical Isolate X 1.1, Serum", "value": "< 0.1", "unit": "µg/mL"},
      {"measurement": "Minimum Inhibitory Concentration", "setting": "[2]; Serum", "value": "> 20", "unit": "µg/mL"},
      {"measurement": "MIC", "setting": "[2]; Staphylococcus, No Serum, read-out: Minimum Inhibitory Concentration", "value": "> 20", "unit": "µg/mL"},
      {"measurement": "MIC", "setting": "[3]", "value": 6.3, "unit": "µg/mL"},
      {"measurement": "MIC", "setting": "[4]", "value": 4, "unit": "µg/mL"},
      {"measurement": "MIC", "setting": "[5]", "value": 0.6, "unit": "µg/mL"},
      {"measurement": "MIC", "setting": "[6]", "value": "> 200", "unit": "µg/mL"},
      {"measurement": "MIC", "setting": "[7]", "value": 0.7, "unit": "µg/mL"},
      {"measurement": "MIC", "setting": "[8]", "value": 1, "unit": "µg/mL"},
      {"measurement": "MIC", "setting": "[9]", "value": 160, "unit": "µg/mL"},
      {"measurement": "MIC", "setting": "[10]", "value": 8, "unit": "µg/mL"},
      {"measurement": "MIC", "setting": "[11]", "value": 128, "unit": "µg/mL"},
      {"measurement": "MIC", "setting": "[12]", "value": 4, "unit": "µg/mL"},
      {"measurement": "MIC", "setting": "[13]", "value": 0.5, "unit": "µg/mL"},
      {"measurement": "MIC", "setting": "[14]", "value": "> 128", "unit": "µg/mL"},
      {"measurement": "MIC", "setting": "[15]", "value": 1, "unit": "µg/mL"},
      {"measurement": "MIC", "setting": "[16]", "value": "> 0.25", "unit": "µg/mL"},
      {"measurement": "MIC", "setting": "[17]", "value": "> 128", "unit": "µg/mL"},
      {"measurement": "MIC", "setting": "[18]", "value": 128, "unit": "µg/mL"},
      {"measurement": "MIC", "setting": "[19]", "value": "> 128", "unit": "µg/mL"},
      {"measurement": "MIC", "setting": "[20]", "value": "> 128", "unit": "µg/mL"},
      {"measurement": "MIC", "setting": "[21]", "value": 64, "unit": "µg/mL"},
      {"measurement": "MIC", "setting": "[22]", "value": "> 128", "unit": "µg/mL"},
      {"measurement": "MIC", "setting": "[23]", "value": "> 128", "unit": "µg/mL"},
      {"measurement": "MIC", "setting": "[24]", "value": 64, "unit": "µg/mL"},
      {"measurement": "MIC", "setting": "[25]", "value": "> 128", "unit": "µg/mL"},
      {"measurement": "MIC", "setting": "[26]", "value": 128, "unit": "µg/mL"},
      {"measurement": "MIC", "setting": "[27]", "value": 4, "unit": "µg/mL"},
      {"measurement": "MIC", "setting": "[28]", "value": 1, "unit": "µg/mL"},
      {"measurement": "pKa", "setting": "[29]; only or first pKa", "value": 4.5}
    ]},
    {"smiles": "NC1C(=O)N2C(C(=O)OCc3ccc([N+](=O)[O-])cc3)=C(O)CS[C@H]12", "note": "(stereo partly drawn) [Example 5, p-Nitrobenzyl 7-amino-3-hydroxy-3-cephem-4-carboxylate hydrochloride]", "values": [
      {"measurement": "pKa", "setting": "[29]; 66% DMF, second pKa", "value": 6.3},
      {"measurement": "pKa", "setting": "[29]; only or first pKa", "value": 4}
    ]}
  ]
}
